Tested on: 313798-341-R-J2-PDC spheroids, viability
Test: Anticancer human tumor 313798-341-R-J2-PDC patient-derived cervical squamous cell carcinoma cell line growth inhibition [PI3K]
Settings: spheroids with HUVEC and MSC; for viability, T/C: stronger effect = lower value
Method in brief: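 Agents were dosed from a top concentration near clinical Cmax (otherwise 10 microM) in half-log decrements, alone or combined with PI3K inhibitors. The spheroids contain tumor cells plus endothelial (HUVEC) and MSC stroma; viability is measured.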

[1] = curve of first compound, second compound 0.0316 µM
[2] = curve of first compound, second compound 0.1 µM
[3] = curve of first compound, second compound 0.316 µM
[4] = curve of first compound, second compound 1 µM
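Further: spheroids exposed to compounds for seven days.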
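Wherever viability, T/C is given: 100% = DMSO vehicle control viability.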

Structure (SMILES): CC(Nc1ncnc2nc[nH]c12)c1cc2cccc(Cl)c2c(=O)n1-c1ccccc1 (stereo unspecified)
- viability, T/C (compound 0.0316 µM): 100% [middle of 8 runs]
- viability, T/C (compound 0.1 µM): 95.1% [middle of 8 runs]
- viability, T/C (compound 0.316 µM): 99.5% [middle of 8 runs]
- viability, T/C (compound 1 µM): 97.6% [middle of 8 runs]
- viability, T/C (compound 3.16 µM): 94.7% [middle of 8 runs]
- viability, T/C (compound 10 µM): 89.6% [middle of 8 runs]
- IC50 (compound alone, run of 04/25/2023): > 10000 nM

Structure (SMILES): Cn1cnc2c(F)c(Nc3ccc(Br)cc3Cl)c(C(=O)NOCCO)cc21 + Cc1nc(NC(=O)N2CCCC2C(N)=O)sc1-c1ccnc(C(C)(C)C(F)(F)F)c1
- IC50 [1]: > 3000 nM
- IC50 [2]: > 3000 nM
- IC50 [3]: > 3000 nM
- IC50 [4]: 2790 nM
- IC50 (curve of first compound, second compound 3.16 µM): 100 nM
- IC50 (curve of first compound, second compound 10 µM): < 9.49 nM
- viability, T/C (second compound 0.0316 µM, first compound 0.00949 µM): 98.8%
- viability, T/C (second compound 0.0316 µM, first compound 0.03 µM): 95.7%
- viability, T/C (second compound 0.0316 µM, first compound 0.0949 µM): 95.7%
- viability, T/C (second compound 0.0316 µM, first compound 0.3 µM): 98.7%
- viability, T/C (second compound 0.0316 µM, first compound 0.949 µM): 98.6%
- viability, T/C (second compound 0.0316 µM, first compound 3 µM): 81.5%
- viability, T/C (second compound 0.1 µM, first compound 0.00949 µM): 105%
- viability, T/C (second compound 0.1 µM, first compound 0.03 µM): 102%
- viability, T/C (second compound 0.1 µM, first compound 0.0949 µM): 98%
- viability, T/C (second compound 0.1 µM, first compound 0.3 µM): 107%
- viability, T/C (second compound 0.1 µM, first compound 0.949 µM): 99.4%
- viability, T/C (second compound 0.1 µM, first compound 3 µM): 83.7%
- viability, T/C (second compound 0.316 µM, first compound 0.00949 µM): 109%
- viability, T/C (second compound 0.316 µM, first compound 0.03 µM): 99.7%
- viability, T/C (second compound 0.316 µM, first compound 0.0949 µM): 98.6%
- viability, T/C (second compound 0.316 µM, first compound 0.3 µM): 100%
- viability, T/C (second compound 0.316 µM, first compound 0.949 µM): 92.6%
- viability, T/C (second compound 0.316 µM, first compound 3 µM): 70.9%
- viability, T/C (second compound 1 µM, first compound 0.00949 µM): 84%
- viability, T/C (second compound 1 µM, first compound 0.03 µM): 79.1%
- viability, T/C (second compound 1 µM, first compound 0.0949 µM): 71.4%
- viability, T/C (second compound 1 µM, first compound 0.3 µM): 76.5%
- viability, T/C (second compound 1 µM, first compound 0.949 µM): 68.7%
- viability, T/C (second compound 1 µM, first compound 3 µM): 48.4%
- viability, T/C (second compound 3.16 µM, first compound 0.00949 µM): 55.3%
- viability, T/C (second compound 3.16 µM, first compound 0.03 µM): 50.3%
- viability, T/C (second compound 3.16 µM, first compound 0.0949 µM): 50.7%
- viability, T/C (second compound 3.16 µM, first compound 0.3 µM): 47.5%
- viability, T/C (second compound 3.16 µM, first compound 0.949 µM): 39.9%
- viability, T/C (second compound 3.16 µM, first compound 3 µM): 32.8%
- viability, T/C (second compound 10 µM, first compound 0.00949 µM): 32.2%
- viability, T/C (second compound 10 µM, first compound 0.03 µM): 25.8%
- viability, T/C (second compound 10 µM, first compound 0.0949 µM): 23%
- viability, T/C (second compound 10 µM, first compound 0.3 µM): 24.3%
- viability, T/C (second compound 10 µM, first compound 0.949 µM): 17.1%
- viability, T/C (second compound 10 µM, first compound 3 µM): 10.4%

Structure (SMILES): CC(C)NCC(C(=O)N1CCN(c2ncnc3c2C(C)CC3O)CC1)c1ccc(Cl)cc1 (stereo unspecified) + COc1c(OCCCN2CCOCC2)ccc2c3n(c(=NC(=O)c4cnc(N)nc4)nc12)CCN3
- IC50 (curve of first compound, second compound 0.00316 µM): 2420 nM
- IC50 (curve of first compound, second compound 0.01 µM): 1210 nM
- IC50 [1]: 1620 nM
- IC50 [2]: < 31.6 nM
- IC50 [3]: < 31.6 nM
- IC50 [4]: < 31.6 nM
- viability, T/C (second compound 0.00316 µM, first compound 0.0316 µM): 97.3%
- viability, T/C (second compound 0.00316 µM, first compound 0.1 µM): 99%
- viability, T/C (second compound 0.00316 µM, first compound 0.316 µM): 83%
- viability, T/C (second compound 0.00316 µM, first compound 1 µM): 64.3%
- viability, T/C (second compound 0.00316 µM, first compound 3.16 µM): 46.9%
- viability, T/C (second compound 0.00316 µM, first compound 10 µM): 33%
- viability, T/C (second compound 0.01 µM, first compound 0.0316 µM): 85.9%
- viability, T/C (second compound 0.01 µM, first compound 0.1 µM): 97.1%
- viability, T/C (second compound 0.01 µM, first compound 0.316 µM): 81.1%
- viability, T/C (second compound 0.01 µM, first compound 1 µM): 52%
- viability, T/C (second compound 0.01 µM, first compound 3.16 µM): 39.2%
- viability, T/C (second compound 0.01 µM, first compound 10 µM): 29.8%
- viability, T/C (second compound 0.0316 µM, first compound 0.0316 µM): 74.8%
- viability, T/C (second compound 0.0316 µM, first compound 0.1 µM): 73.6%
- viability, T/C (second compound 0.0316 µM, first compound 0.316 µM): 59.9%
- viability, T/C (second compound 0.0316 µM, first compound 1 µM): 63.2%
- viability, T/C (second compound 0.0316 µM, first compound 3.16 µM): 33%
- viability, T/C (second compound 0.0316 µM, first compound 10 µM): 26.1%
- viability, T/C (second compound 0.1 µM, first compound 0.0316 µM): 42.6%
- viability, T/C (second compound 0.1 µM, first compound 0.1 µM): 38.6%
- viability, T/C (second compound 0.1 µM, first compound 0.316 µM): 36.9%
- viability, T/C (second compound 0.1 µM, first compound 1 µM): 34%
- viability, T/C (second compound 0.1 µM, first compound 3.16 µM): 23.9%
- viability, T/C (second compound 0.1 µM, first compound 10 µM): 18.6%
- viability, T/C (second compound 0.316 µM, first compound 0.0316 µM): 15.2%
- viability, T/C (second compound 0.316 µM, first compound 0.1 µM): 18.4%
- viability, T/C (second compound 0.316 µM, first compound 0.316 µM): 15.9%
- viability, T/C (second compound 0.316 µM, first compound 1 µM): 17.6%
- viability, T/C (second compound 0.316 µM, first compound 3.16 µM): 16.3%
- viability, T/C (second compound 0.316 µM, first compound 10 µM): 8.87%
- viability, T/C (second compound 1 µM, first compound 0.0316 µM): 10.8%
- viability, T/C (second compound 1 µM, first compound 0.1 µM): 11.6%
- viability, T/C (second compound 1 µM, first compound 0.316 µM): 9.87%
- viability, T/C (second compound 1 µM, first compound 1 µM): 13.1%
- viability, T/C (second compound 1 µM, first compound 3.16 µM): 10.6%
- viability, T/C (second compound 1 µM, first compound 10 µM): 5.77%

Reference: PubChem BioAssay AID1963982 (Molecular Pharmacology Branch, DTP, NCI, 2024)
